Results reported in US7037647B1, “Prostate-specific membrane antigen and uses thereof” (Sloan-Kettering Institute for Cancer Research, priority 1995, dated 2006).
Where two headings read alike, the source gives them in different places.

How the values were obtained:
[1] = molecular target: T1, PSM enzyme (folate hydrolase) (Homo sapiens, UniProt Q04609); assay type: biochemical; conditions: for hydrolysis as substrate by the PSM enzyme (in words): LNCaP membrane preparations
T1 construct: membrane preparations from androgen-sensitive human prostatic carcinoma cells (LNCaP); endogenous in cells; host or cells: LNCaP cell membranes
T1 sequence (Q04609 whole entry): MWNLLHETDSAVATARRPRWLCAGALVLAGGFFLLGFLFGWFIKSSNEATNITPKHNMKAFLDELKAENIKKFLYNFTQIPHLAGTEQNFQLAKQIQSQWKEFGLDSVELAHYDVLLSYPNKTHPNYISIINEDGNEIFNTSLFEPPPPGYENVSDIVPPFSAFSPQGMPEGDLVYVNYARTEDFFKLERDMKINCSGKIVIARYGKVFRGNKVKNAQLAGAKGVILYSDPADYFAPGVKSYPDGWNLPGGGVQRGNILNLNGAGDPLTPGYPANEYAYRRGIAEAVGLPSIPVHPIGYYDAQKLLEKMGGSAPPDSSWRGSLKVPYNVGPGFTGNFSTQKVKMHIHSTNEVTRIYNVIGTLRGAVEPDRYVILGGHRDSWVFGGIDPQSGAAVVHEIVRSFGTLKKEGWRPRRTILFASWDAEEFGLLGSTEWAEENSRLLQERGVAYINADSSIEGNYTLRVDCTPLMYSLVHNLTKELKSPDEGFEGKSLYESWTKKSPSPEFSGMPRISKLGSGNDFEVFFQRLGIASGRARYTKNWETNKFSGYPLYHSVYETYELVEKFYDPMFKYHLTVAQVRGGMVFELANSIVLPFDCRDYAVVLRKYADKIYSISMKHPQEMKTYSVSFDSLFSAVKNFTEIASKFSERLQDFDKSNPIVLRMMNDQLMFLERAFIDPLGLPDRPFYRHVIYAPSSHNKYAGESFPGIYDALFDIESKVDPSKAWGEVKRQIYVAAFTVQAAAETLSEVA
Description: Using capillary electrophoresisis pteroyl poly-gamma-glutamate carboxypeptidase (hydrolase) activity was investigated in membrane preparations from androgen-sensitive human prostatic carcinoma cells (LNCaP).

[2] = test system: PSM mRNA expression in LNCaP cells; test: Steroid modulation of PSM mRNA expression, ribonuclease protection assay; assay type: cell-based, human; conditions: 24 hours; for effect on PSM mRNA expression (in words): physiologic doses of steroids; for downregulation of PSM mRNA expression: charcoal-extracted serum media, steroid 2 nM
Description: A portion of the PSM cDNA was subcloned into the plasmid vector pSPORT 1 (Gibco-BRL) and the orientation of the cDNA insert relative to the flanking T7 and SP6 RNA polymerase promoters was verified by restriction analysis. Linearization of this plasmid upstream of the PSM insert followed by transcription with SP6 RNA polymerase yields a 400 nucleotide antisense RNA probe, of which 350 nucleotides should be protected from RNase digestion by PSM RNA. This probe was used in FIG. 20. Plasmid IN-20, containing a 1 kb partial PSM cDNA in the plasmid pCR II (Invitrogen) was also used for riboprobe synthesis. IN-20 linearized with Xmn I (Gibco-BRL) yields a 298 nucleotide anti-sense RNA probe when transcribed using SP6 RNA polymerase, of which 260 nucleotides should be protected from RNase digestion by PSM mRNA. This probe was used in FIGS. 21 and 22. Probes were synthesized using SP6 RNA polymerase (Gibco-BRL), rNTPs (Gibco-BRL), RNAsin (Promega), and ^32P-rCTP (NEN, Wilmington, Del.) according to published protocols (13). Probes were purified over NENSORB 20 purification columns (NEN) and approximately 1 million cpm of purified, radiolabeled PSM probe was mixed with 10μ of each RNA and hybridized overnight at 45 C using buffers and reagents from the RPA II kit (Ambion, Austin, Tex.). Samples were processed as per manufacturer's instructions and analyzed on 5% polyacrilamide/7M urea denaturing gels using Seq ACRYL reagents (ISS, Natick, Mass.). Gels were pre-heated to 55 C and run for approximately 1-2 hours at 25 watts. Gels were then fixed for 30 minutes in 10% methanol/10% acetic acid, dried onto Whatman 3MM paper at 80 C in a BioRad vacuum dryer and autoradiographed overnight with Hyperfilm MP (Amersham). Quantitation of PSM expression was determined by using a scanning laser densitometer (LKB, Piscataway, N.J.).
LNCaP cells (2 million) were plated onto T-75 flasks in RPMI 1640 media supplemented with 5% fetal calf serum and grown 24 hours until approximately 30-40% confluent. Flasks were then washed several times with phophate-buffered saline and RPMI medium supplemented with 5% charcoal-extracted serum was added. Cells were then grown for another 24 hours, at which time dihydrotesterone, testosterone, estradiol, progesterone, and dexamethasone (Steraloids Inc., Wilton, N.H.) were added at a final concentration of 2 nM. Cells were grown for another 24 hours and RNA was then harvested as previously described and PSM expression analyzed by ribonuclease protection analysis.

[3] = test system: PSM mRNA expression in LNCaP cells; test: Modulation of PSM mRNA expression by cytokines and growth factors, Northern blot and laser densitometry; assay type: cell-based, human; conditions: 24 to 72 hours, 0.1 ng/ml to 100 ng/ml; for downregulation of PSM expression: androgen depleted LNCaP cells; for upregulation of PSM expression compared to untreated LNCaP: androgen-depleted media
Description: Total RNA was extracted from the cells and PSM mRNA expression was quantitated by Northern blot analysis and laser densitometry.

PC-3 cells = test: Mitogenic response to transferrin, cell count; assay type: cell-based, human; conditions: 1 μg per ml holotransferrin, counted at 5 days
Description: 2×10^4 PC-3 or PSM-transfected PC-3 cells per well ere plated in RPMI medium supplemented with 10% fetal bovine serum and at 24 hrs. added 1 μg per ml. of holotransferrin to the cells. […] Cells were counted at 1 day to determine plating efficiency and at 5 days to determine the effect of the transferrin. Experiments were repeated to verify the results.

LNCaP cells = test: Mitogenic response to transferrin, cell count; assay type: cell-based, human
[4] = molecular target: T2, Prostate specific membrane antigen (Homo sapiens, UniProt Q04609); test: Inhibition of neuropeptidase activity (NAAG as substrate) of immunoprecipitated PSM; assay type: biochemical
T2 construct: Prostate specific membrane antigen was immuno precipitated from the prostate cancer cell line LNCaP; endogenous in cells; host or cells: LNCaP (immunoprecipitate)
T2 sequence (Q04609 whole entry): as above
Description: PSM may have activities both as a folate hydrolase and a carboxyneuropeptidase. For the cytotoxic drug methotrexate to be a tumor toxin it has to get into the cell and be polygammaglutamated which to be active, because polyglutamated forms serve as the enzyme substrates and because polyglutamated forms or toxins are also retained by the cell. Folate hydrolase is a competing reaction and deglutamates methotrexate which then can diffuse back out of the cell. Cells that overexpose folate hydrolase activity are resistant to methotrexate. Prostate cancer has always been absolutely refractory to methotrexate therapy and this may explain why, since the prostate and prostate cancer has a lot of folate hydolase activity. However, based on this activity, prodrugs may be generated which would be activate at the site of the tumor such as N-phosphonoacetyl-1-aspartate-glutamate.
Folate is necessary for the support of cell function and growth and thus this enzyme may serve to modulate folate access to the prostate and prostate tumor. The other area where PSM is expressed is in the small intestine. It turns out that a key enzyme of the small intestine that is involved in folate uptake acts as a gamma-carboxypeptidase in sequentially proteolytically removing the terminal gammaglutaminyl group from folate. […]

[5] = 0.05-0.5 mM, semi-purified membrane-bound enzyme

With `CN(Cc1cnc2nc(N)nc(N)c2n1)c1ccc(C(=O)N[C@@H](CCC(=O)N[C@@H](CCC(=O)N[C@@H](CCC(=O)O)C(=O)O)C(=O)O)C(=O)O)cc1` [MTXGlu3, methotrexate triuglutamate] the “hydrolysis as substrate by the PSM enzyme (in words)” value [1] was “liberates progressively glutamates”.

`N[C@@H](CCC(=O)N[C@@H](CS)C(=O)NCC(=O)O)C(=O)O` [reduced glutathione] was tested, and the “inhibition of enzymatic activity (in words)” value [1] was “not”.

In the case of `CC(=O)[C@H]1CC[C@H]2[C@@H]3CCC4=CC(=O)CC[C@]4(C)[C@H]3CC[C@]12C` [progesterone], the “effect on PSM mRNA expression (in words)” value [2] is reported as “downregulated PSM expression” and the “effect on PSM mRNA expression (in words)” value ([2]; listed as Progesterone) is reported as “significantly diminished PSM expression”.

With TNFα the “downregulation of PSM expression” value [3] was 8 fold.

For b-FGF: growth factor, the “upregulation of PSM expression compared to untreated LNCaP” value [3] was 10 fold.

With `C[C@]12CC[C@H]3[C@@H](CCC4=CC(=O)CC[C@@]43C)[C@@H]1CC[C@@H]2O` [testosterone] the “downregulation of PSM mRNA expression” value [2] was 3-4 fold and the “effect on PSM mRNA expression (in words)” value [2] was “significantly diminished PSM expression”.

`N[C@@H](CCS)C(=O)O` [homocysteine] was tested, and the “inhibition of enzymatic activity (in words)” value [1, 5] was “not”.

In the case of `O=C(O)c1cc[c]([Hg+])cc1.[OH-]` [p-hydroxymercuribenzoate], the “inhibition of enzymatic activity (in words)” value [1, 5] is reported as “not”.

For “transferrin: holotransferrin added at 1 μg per ml to the cells”, the “average increase in cell growth over controls” value (PC-3 cells) was 275% and the “stimulation of cell growth” value (LNCaP cells) was 43%.

In the case of `O=C(O)CC[C@H](NC(=O)[C@H](CC(=O)O)NC(=O)CP(=O)(O)O)C(=O)O` [PALglu, N-phosphonoacetyl-1-aspartate-glutamate], the “inhibition of neuropeptidase activity (in words)” value ([4]; NAAG as a substrate) is reported as “is an inhibitor of the enzyme activity”.

For Penta-gammaglutamyl-folate, the Ki ([4]; read-out: Ki, inhibition of the activity of the enzyme) was 500 nM and the “hydrolysis as substrate by the PSM enzyme (in words)” value [1] was “liberates progressively glutamates”.

`O[C@@H](CS)[C@@H](O)CS` [dithfothreitol] was tested, and the “inhibition of enzymatic activity (in words)” value ([1]; ≧0.2 mM, semi-purified membrane-bound enzyme) was “weakly inhibited”.

With `C[C@]12CCC(=O)C[C@@H]1CC[C@@H]1[C@@H]2CC[C@]2(C)[C@@H](O)CC[C@@H]12` [DHT, dihydrotesterone] the “doses at which maximal downregulation of PSM mRNA was seen” value [2] was 2 to 20 nM, the “downregulation of PSM mRNA expression” value [2] was 8-10 fold and the “effect on PSM mRNA expression (in words)” value [2] was “significantly diminished PSM expression”.

In the case of “TGFα: growth factor, mitogenic for aggressive prostate cancer cells”, the “upregulation of PSM expression compared to untreated LNCaP” value [3] is reported as 10 fold.

B1: TNFβ: cytokine (protein, UniProt P01374 35-205, looked up)
Lymphotoxin-alpha: LPGVGLTPSAAQTARQHPKMHLAHSTLKPAAHLIGDPSKQNSLLWRANTDRAFLQDGFSLSNNSLLVPTSGIYFVYSQVVFSGKAYSPKATSSPLYLAHEVQLFSSQYPFHVPLLSSQKMVYPGLQEPWLHSMYHGAAFQLTQGDQLSTHTDGIPHLVLSPSTVFFGAFAL
For B1, the “downregulation of PSM expression” value [3] was 8 fold.
